Reference: US20060141496A1, “Method of screening substance interacting with ABC protein” (priority 2003, published 2006)

target: T1, human P-glycoprotein (Pgp or MDR 1) expressing membrane (Homo sapiens, UniProt P08183); experiment: [3H] ADP binding amount by vanadate method, suction cleaning on 96-well glass filter, P-glycoprotein-expressing membrane; assay type: biochemical; conditions: substrate 0.05 mM; reaction time 5 minutes; 37° C.; background of control membrane subtracted; FIG. 4
T1 construct: purchased Daiichi Pure Chemicals Co. No. 453228; host or cells: Sf9 insect cell membrane
T1 sequence (P08183 whole entry): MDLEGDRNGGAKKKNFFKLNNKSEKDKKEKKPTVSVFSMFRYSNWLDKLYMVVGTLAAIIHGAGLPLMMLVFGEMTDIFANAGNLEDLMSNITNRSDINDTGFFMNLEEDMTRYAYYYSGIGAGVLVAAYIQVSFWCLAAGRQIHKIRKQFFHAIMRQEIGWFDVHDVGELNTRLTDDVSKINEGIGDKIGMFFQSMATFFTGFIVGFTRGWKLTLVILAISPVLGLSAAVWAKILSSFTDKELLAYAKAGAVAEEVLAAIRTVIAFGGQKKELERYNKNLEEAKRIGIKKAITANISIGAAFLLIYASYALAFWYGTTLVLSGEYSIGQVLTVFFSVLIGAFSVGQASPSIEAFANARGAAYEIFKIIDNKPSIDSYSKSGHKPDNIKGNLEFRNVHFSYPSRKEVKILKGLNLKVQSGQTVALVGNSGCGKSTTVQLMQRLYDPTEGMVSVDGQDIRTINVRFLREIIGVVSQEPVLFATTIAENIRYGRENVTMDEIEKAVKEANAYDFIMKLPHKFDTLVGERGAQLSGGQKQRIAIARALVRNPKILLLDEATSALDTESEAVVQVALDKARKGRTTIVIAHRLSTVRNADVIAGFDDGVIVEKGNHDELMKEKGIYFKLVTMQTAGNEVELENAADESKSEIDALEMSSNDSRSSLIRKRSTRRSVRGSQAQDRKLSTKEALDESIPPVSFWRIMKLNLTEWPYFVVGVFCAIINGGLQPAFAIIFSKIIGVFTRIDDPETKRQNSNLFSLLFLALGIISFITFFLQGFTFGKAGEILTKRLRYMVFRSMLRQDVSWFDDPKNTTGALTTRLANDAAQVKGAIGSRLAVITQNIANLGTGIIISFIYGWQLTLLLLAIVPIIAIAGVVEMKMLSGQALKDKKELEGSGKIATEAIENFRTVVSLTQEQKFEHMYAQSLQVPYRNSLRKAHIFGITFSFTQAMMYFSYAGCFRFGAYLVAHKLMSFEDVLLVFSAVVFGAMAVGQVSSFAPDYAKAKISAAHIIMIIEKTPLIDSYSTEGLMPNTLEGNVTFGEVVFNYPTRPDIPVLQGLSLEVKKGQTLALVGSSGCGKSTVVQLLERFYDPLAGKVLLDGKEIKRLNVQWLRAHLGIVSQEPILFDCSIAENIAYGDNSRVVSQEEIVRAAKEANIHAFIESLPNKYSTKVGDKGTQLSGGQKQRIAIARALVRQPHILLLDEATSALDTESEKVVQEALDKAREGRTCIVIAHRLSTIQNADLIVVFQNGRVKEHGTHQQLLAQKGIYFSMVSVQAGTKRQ

[3H] ADP binding activity compared to P-glycoprotein-expressing membrane without substrate | Compound
significant increase | COc1cccc2c1C(=O)c1c(O)c3c(c(O)c1C2=O)C[C@@](O)(C(C)=O)C[C@@H]3O[C@H]1C[C@H](N)[C@H](O)[C@H](C)O1 [Daunorubicin]
significant increase | COc1cccc2c1C(=O)c1c(O)c3c(c(O)c1C2=O)C[C@@](O)(C(=O)CO)C[C@@H]3O[C@H]1C[C@H](N)[C@H](O)[C@H](C)O1 [Doxorubicin]
significant increase | Nc1nc2ncc(CNc3ccc(C(=O)N[C@@H](CCC(=O)O)C(=O)O)cc3)nc2c(=O)[nH]1 [Folate]
significant increase | CN(Cc1cnc2nc(N)nc(N)c2n1)c1ccc(C(=O)N[C@@H](CCC(=O)O)C(=O)O)cc1 [Methotrexate]
significant increase | CC[C@]1(O)C[C@@H]2CN(CCc3c([nH]c4ccccc34)[C@@](C(=O)OC)(c3cc4c(cc3OC)N(C)[C@H]3[C@@](O)(C(=O)OC)[C@H](OC(C)=O)[C@]5(CC)C=CCN6CC[C@]43[C@@H]65)C2)C1 [Vinbrastine]
significant increase | CC[C@]1(O)C[C@H]2CN(CCc3c([nH]c4ccccc34)[C@@](C(=O)OC)(c3cc4c(cc3OC)N(C=O)[C@H]3[C@@](O)(C(=O)OC)[C@H](OC(C)=O)[C@]5(CC)C=CCN6CC[C@]43[C@@H]65)C2)C1 [Vincristine]

Compound | [3H] ADP binding activity compared to P-glycoprotein-expressing membrane without substrate
O=C1OC(c2ccc(O)c(S(=O)(=O)O)c2)(c2ccc(O)c(S(=O)(=O)O)c2)c2c(Br)c(Br)c(Br)c(Br)c21 [Bromosulfalein] | lowered significantly

target: T2, human MRP2 (Homo sapiens, UniProt Q92887); experiment: [3H] ADP binding amount by vanadate method, human MRP2-expressing Sf9 membrane; assay type: biochemical; conditions: substrate 0.1 mM; reaction time 5 minutes; 37° C.; FIG. 6
T2 construct: made in house; host or cells: Sf9 insect cells (baculovirus, pFASTBac1)
T2 sequence (Q92887 whole entry): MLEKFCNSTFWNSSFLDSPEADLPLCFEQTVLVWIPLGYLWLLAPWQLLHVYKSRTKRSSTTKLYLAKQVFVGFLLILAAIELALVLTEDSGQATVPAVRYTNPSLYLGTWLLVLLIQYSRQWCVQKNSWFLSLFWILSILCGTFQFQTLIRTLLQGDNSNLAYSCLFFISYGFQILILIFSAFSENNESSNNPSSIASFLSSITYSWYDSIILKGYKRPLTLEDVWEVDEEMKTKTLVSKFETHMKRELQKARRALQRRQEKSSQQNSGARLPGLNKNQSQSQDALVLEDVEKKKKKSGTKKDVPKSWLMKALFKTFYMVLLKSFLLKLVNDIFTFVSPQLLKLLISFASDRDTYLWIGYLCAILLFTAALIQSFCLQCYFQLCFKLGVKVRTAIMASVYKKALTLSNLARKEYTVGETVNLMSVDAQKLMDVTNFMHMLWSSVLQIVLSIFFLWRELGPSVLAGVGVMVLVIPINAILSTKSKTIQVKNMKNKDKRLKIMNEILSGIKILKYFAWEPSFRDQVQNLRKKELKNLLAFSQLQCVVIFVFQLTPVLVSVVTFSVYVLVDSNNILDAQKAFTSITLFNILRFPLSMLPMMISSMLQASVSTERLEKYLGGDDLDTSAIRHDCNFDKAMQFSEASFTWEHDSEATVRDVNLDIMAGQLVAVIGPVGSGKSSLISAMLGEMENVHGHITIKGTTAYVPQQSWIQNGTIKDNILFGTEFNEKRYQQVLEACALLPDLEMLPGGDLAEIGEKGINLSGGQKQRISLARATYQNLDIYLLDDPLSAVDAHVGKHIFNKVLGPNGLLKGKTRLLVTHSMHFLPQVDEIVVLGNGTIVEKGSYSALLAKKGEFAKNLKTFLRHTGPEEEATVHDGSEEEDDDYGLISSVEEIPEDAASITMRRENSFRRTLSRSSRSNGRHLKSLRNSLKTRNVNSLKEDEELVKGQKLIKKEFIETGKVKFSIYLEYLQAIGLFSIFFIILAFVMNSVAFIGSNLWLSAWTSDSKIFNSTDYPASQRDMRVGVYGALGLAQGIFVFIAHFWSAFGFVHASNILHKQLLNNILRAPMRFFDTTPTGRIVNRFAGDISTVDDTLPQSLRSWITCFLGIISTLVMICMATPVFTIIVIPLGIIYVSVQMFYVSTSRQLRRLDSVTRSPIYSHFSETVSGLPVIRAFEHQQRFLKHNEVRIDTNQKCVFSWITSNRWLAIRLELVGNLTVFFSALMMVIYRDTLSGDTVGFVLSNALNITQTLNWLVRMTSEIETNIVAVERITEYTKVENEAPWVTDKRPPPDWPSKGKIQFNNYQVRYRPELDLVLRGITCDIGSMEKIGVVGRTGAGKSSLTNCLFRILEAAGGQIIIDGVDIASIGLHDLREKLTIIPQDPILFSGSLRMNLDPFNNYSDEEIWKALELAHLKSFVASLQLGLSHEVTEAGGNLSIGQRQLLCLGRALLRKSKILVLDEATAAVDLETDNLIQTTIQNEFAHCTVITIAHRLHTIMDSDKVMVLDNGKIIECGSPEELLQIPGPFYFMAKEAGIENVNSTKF

Compound | [3H] ADP binding activity compared to MRP2-expressing membranes without substrate
O=C1OC(c2ccc(O)c(S(=O)(=O)O)c2)(c2ccc(O)c(S(=O)(=O)O)c2)c2c(Br)c(Br)c(Br)c(Br)c21 [Bromosulfalein] | increase of significant [^3H] ADP binding activity
β-estradiol-17-(β-D-glucuronide) [β-estradiol-17 (β-D-glucuronide)] | increase of significant [^3H] ADP binding activity
